In ChEMBL document CHEMBL6114943, “Engineered Cyclotide Blocks Neuronal Excitotoxicity” (J Med Chem, 2025):
Blank lines part the entries; values can stand above or below the molecule they belong to. Active and inactive are the calls of the source. The rule behind the calls is not given here. Where a SMILES comes first, the peptide text is derived from it. Bridges are numbered along the chain shown (N, C = ends). The star is where a group is joined. X1 = CC[N+]1=C(/C=C/C=C/C=C/C=C2/N(CCCCCC(=O)*)c3ccc(S(=O)(=O)O)cc3C2(C)C)C(C)(C)c2cc(S(=O)(=O)[O-])ccc21

Assays:
[1] = Biodistribution in C57BL/6 mouse spleen at 3 nmol/g, iv measured after 24 hrs post injection by fluorescence based analysis; type: ADME, organism-based; conditions: in vivo
[2] = Biodistribution in C57BL/6 mouse spleen at 3 nmol/g, iv measured after 90 mins post injection by fluorescence based analysis; type: ADME, organism-based; conditions: in vivo, 1.5 h
[3] = Biodistribution in C57BL/6 mouse brain at 3 nmol/g, iv measured after 90 mins post injection by fluorescence based analysis; type: ADME, organism-based; conditions: in vivo, 1.5 h
[4] = Biodistribution in C57BL/6 mouse heart at 3 nmol/g, iv measured after 90 mins post injection by fluorescence based analysis; type: ADME, organism-based; conditions: in vivo, 1.5 h
[5] = Biodistribution in C57BL/6 mouse kidney at 3 nmol/g, iv measured after 90 mins post injection by fluorescence based analysis; type: ADME, organism-based; conditions: in vivo, 1.5 h
[6] = Biodistribution in C57BL/6 mouse liver at 3 nmol/g, iv measured after 90 mins post injection by fluorescence based analysis; type: ADME, organism-based; conditions: in vivo, 1.5 h
[7] = Biodistribution in C57BL/6 mouse lung at 3 nmol/g, iv measured after 90 mins post injection by fluorescence based analysis; type: ADME, organism-based; conditions: in vivo, 1.5 h
[8] = Biodistribution in C57BL/6 mouse lung at 3 nmol/g, iv measured after 24 hrs post injection by fluorescence based analysis; type: ADME, organism-based; conditions: in vivo
Neuron [9] = assay: Neuroprotective activity against Amyloid beta-induced cell death in mouse primary neuron assessed as cell viability at 0.1 nM preincubated with compound for 1 hrs followed by Amyloid beta addition and measured after 1 hrs by PI staining based analysis; type: functional
[10] = Toxicity in C57BL/6 mouse assessed as change in alanine transaminase level at 3 nmol/g, iv administered 3 consecutive days; type: organism-based; conditions: in vivo
Disks large homolog 4 = Disks large homolog 4 (Homo sapiens, UniProt P78352); assay: Binding affinity to PSD-95 (unknown origin) assessed as binding constant (Kd) by MST analysis
Chain of Disks large homolog 4 (P78352 whole entry): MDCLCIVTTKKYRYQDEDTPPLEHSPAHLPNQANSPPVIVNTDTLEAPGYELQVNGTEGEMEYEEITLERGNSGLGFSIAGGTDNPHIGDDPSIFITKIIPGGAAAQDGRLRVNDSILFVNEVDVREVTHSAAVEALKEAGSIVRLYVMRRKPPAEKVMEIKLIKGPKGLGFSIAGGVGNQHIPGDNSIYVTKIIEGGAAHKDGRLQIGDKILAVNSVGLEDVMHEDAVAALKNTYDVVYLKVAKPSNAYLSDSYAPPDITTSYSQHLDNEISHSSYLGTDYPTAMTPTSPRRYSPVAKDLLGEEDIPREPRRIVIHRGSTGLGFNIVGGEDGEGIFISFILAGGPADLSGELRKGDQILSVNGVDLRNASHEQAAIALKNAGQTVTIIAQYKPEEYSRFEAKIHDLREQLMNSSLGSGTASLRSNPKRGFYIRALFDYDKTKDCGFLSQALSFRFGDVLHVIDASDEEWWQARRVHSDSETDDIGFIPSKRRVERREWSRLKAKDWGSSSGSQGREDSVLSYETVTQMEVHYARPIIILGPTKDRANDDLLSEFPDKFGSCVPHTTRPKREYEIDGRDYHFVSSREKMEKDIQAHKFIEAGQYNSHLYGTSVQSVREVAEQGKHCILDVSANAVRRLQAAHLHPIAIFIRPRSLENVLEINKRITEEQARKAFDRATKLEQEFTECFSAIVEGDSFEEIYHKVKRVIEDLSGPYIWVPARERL

Mus musculus [11] = assay: Neuroprotective activity against pilocarpine-induced seizure in C57BL6 mouse assessed as survival rate at 3 nmol/g, iv pretreated with compound for 1 hrs followed by pilocarpine induction and measured after 2 hrs relative to control; type: functional; conditions: time 3 hrs
Neuron [12] = assay: Cytotoxicity against mouse primary neuron upto 1 uM incubated for 24 hrs; type: toxicity, cell-based
[13] = Biodistribution in C57BL/6 mouse lung at 3 nmol/g, iv measured after 24 hrs post injection using Cy7 labelled compound by fluorescence based analysis; type: ADME, organism-based; conditions: in vivo
Neuron [14] = assay: Neuroprotective activity against Amyloid beta-induced cell death in mouse primary neuron assessed as cell viability at 100 nM preincubated with compound for 1 hrs followed by Amyloid beta addition and measured after 1 hrs by PI staining based analysis; type: functional; conditions: time 2.0 hrs
[15] = Biodistribution in C57BL/6 mouse heart at 3 nmol/g, iv measured after 90 mins post injection using Cy7 labelled compound by fluorescence based analysis; type: ADME, organism-based; conditions: in vivo, 1.5 h
[16] = Biodistribution in C57BL/6 mouse kidney at 3 nmol/g, iv measured after 90 mins post injection using Cy7 labelled compound by fluorescence based analysis; type: ADME, organism-based; conditions: in vivo, 1.5 h
[17] = Toxicity in C57BL/6 mouse assessed as histological changes in liver at 3 nmol/g, iv administered 3 consecutive days by H and E staining based analysis; type: organism-based; conditions: in vivo
[18] = Toxicity in C57BL/6 mouse assessed as histological changes in lung at 3 nmol/g, iv administered 3 consecutive days by H and E staining based analysis; type: organism-based; conditions: in vivo
Neuron [19] = assay: Neuroprotective activity against Amyloid beta-induced cell death in mouse primary neuron assessed as cell viability preincubated with compound for 1 hrs followed by Amyloid beta addition and measured after 1 hrs by PI staining based analysis relative to control; type: functional; conditions: time 2 hrs
[20] = Drug uptake in mouse Primary neuron at 100 nM measured at 20 mins by inverted confocal microscopic analysis; type: ADME, cell-based; conditions: 0.1 µM
Mus musculus [21] = assay: Neuroprotective activity against pilocarpine-induced seizure in C57BL6 mouse assessed as reduction in seizure severity at 30 nmol/g, po pretreated with compound for 1 hrs followed by pilocarpine induction and measured after 2 hrs; type: functional, organism-based; conditions: time 3.0 hrs
Neuron [22] = assay: Neuroprotective activity against NMDA-induced cell death in mouse primary neuron assessed as cell viability at 1 nM preincubated with compound for 1 hrs followed by NMDA addition and measured after 1 hrs by PI staining based analysis relative to control; type: functional; conditions: time 2 hrs, read-out: Activity
[23] = Biodistribution in C57BL/6 mouse spleen at 3 nmol/g, iv measured after 24 hrs post injection using Cy7 labelled compound by fluorescence based analysis; type: ADME, organism-based; conditions: in vivo
Mus musculus [24] = assay: Neuroprotective activity against pilocarpine-induced seizure in C57BL6 mouse assessed as reduction in seizure severity at 3 nmol/g, iv pretreated with compound for 1 hrs followed by pilocarpine induction and measured after 2 hrs; type: functional, organism-based; conditions: time 3.0 hrs
Neuron [25] = assay: Neuroprotective activity against NMDA-induced cell death in mouse primary neuron assessed as cell viability preincubated with compound for 1 hrs followed by NMDA addition and measured after 1 hrs by PI staining based analysis relative to control; type: functional; conditions: time 2 hrs
Neuron [26] = assay: Neuroprotective activity against NMDA-induced cell death in mouse primary neuron assessed as reduction in cell viability at 100 nM preincubated with compound for 1 hrs followed by NMDA addition and measured after 1 hrs by PI staining based analysis (reference value: 60.01 +/- 4%); type: functional; conditions: time 2 hrs
[27] = Biodistribution in C57BL/6 mouse brain at 3 nmol/g, iv measured after 90 mins post injection using Cy7 labelled compound by fluorescence based analysis; type: ADME, organism-based; conditions: in vivo, 1.5 h
[28] = Biodistribution in C57BL/6 mouse liver at 3 nmol/g, iv measured after 90 mins post injection using Cy7 labelled compound by fluorescence based analysis; type: ADME, organism-based; conditions: in vivo, 1.5 h
[29] = Biodistribution in C57BL/6 mouse lung at 3 nmol/g, iv measured after 90 mins post injection using Cy7 labelled compound by fluorescence based analysis; type: ADME, organism-based; conditions: in vivo, 1.5 h
Neuron [30] = assay: Neuroprotective activity against NMDA-induced cell death in mouse primary neuron assessed as cell viability at 10 nM preincubated with compound for 1 hrs followed by NMDA addition and measured after 1 hrs by PI staining based analysis relative to control; type: functional; conditions: time 2 hrs, read-out: Activity
[31] = Toxicity in C57BL/6 mouse assessed as histological changes in spleen at 3 nmol/g, iv administered 3 consecutive days by H and E staining based analysis; type: organism-based; conditions: in vivo
[32] = Biodistribution in C57BL/6 mouse spleen at 3 nmol/g, iv measured after 90 mins post injection using Cy7 labelled compound by fluorescence based analysis; type: ADME, organism-based; conditions: in vivo, 1.5 h
[33] = Toxicity in C57BL/6 mouse assessed as histological changes in kidney at 3 nmol/g, iv administered 3 consecutive days by H and E staining based analysis; type: organism-based; conditions: in vivo
Mus musculus [34] = assay: Neuroprotective activity against pilocarpine-induced seizure in C57BL6 mouse assessed as survival rate at 30 nmol/g, po pretreated with compound for 1 hrs followed by pilocarpine induction and measured after 2 hrs relative to control; type: functional; conditions: time 3 hrs

- Drug uptake [1]: Not_active
- Drug uptake [2]: Active
- Drug uptake [3]: Active
- Drug uptake [4]: Active
- Drug uptake [5]: Active
- Drug uptake [6]: Active
- Drug uptake [7]: Active
- Drug uptake [8]: Not_active
SMILES: CC[C@H](C)[C@H](NC(=O)[C@H](CO)NC(=O)[C@H](CO)NC(=O)[C@H](CC(C)C)NC(=O)[C@H](CCCCN)NC(=O)[C@H](CCCNC(=N)N)NC(=O)[C@H](CCCNC(=N)N)NC(=O)[C@H](CCCNC(=N)N)NC(=O)[C@H](CCC(N)=O)NC(=O)[C@H](CCCNC(=N)N)NC(=O)[C@H](CCCNC(=N)N)NC(=O)[C@H](CCCCN)NC(=O)[C@H](CCCCN)NC(=O)[C@H](CCCNC(=N)N)NC(=O)CNC(=O)[C@H](Cc1ccc(O)cc1)NC(=O)CCCCCN1/C(=C/C=C/C=C/C=C/C2=[N+](CC)c3ccc(S(=O)(=O)[O-])cc3C2(C)C)C(C)(C)c2cc(S(=O)(=O)O)ccc21)C(=O)N[C@@H](CCC(=O)O)C(=O)N[C@@H](CO)C(=O)N[C@@H](CC(=O)O)C(=O)N[C@H](C(=O)O)C(C)C (X1-YGRKKRRQRRRKLSSIESDV-OH)

SMILES: CC[C@H](C)[C@@H]1NC(=O)[C@@H]2CSSC[C@@H]3NC(=O)[C@H](C(C)C)NC(=O)[C@H](CC(=O)O)NC(=O)[C@H](CO)NC(=O)[C@H](CCC(=O)O)NC(=O)[C@H]([C@@H](C)CC)NC(=O)[C@H](CO)NC(=O)[C@H](CO)NC(=O)[C@H](CC(C)C)NC(=O)[C@H](CCCCN)NC(=O)[C@@H]4CSSC[C@H](NC(=O)[C@H](CC(=O)O)NC(=O)[C@H](CO)NC(=O)[C@H](CC(=O)O)NC(=O)[C@H](CCCNC(=N)N)NC(=O)[C@H](CCCNC(=N)N)NC(=O)[C@H](CSSC[C@H](NC1=O)C(=O)N[C@@H](CCCNC(=N)N)C(=O)NCC(=O)N[C@@H](CC(N)=O)C(=O)NCC(=O)N[C@@H](Cc1ccc(O)cc1)C(=O)N4)NC(=O)[C@H](CCCNC(=N)N)NC(=O)[C@H](CCCNC(=N)N)NC(=O)[C@H](CCCNC(=N)N)NC(=O)[C@H](CCCNC(=N)N)NC(=O)[C@H](CC(C)C)NC(=O)[C@H]([C@@H](C)CC)NC(=O)[C@H](CCCNC(=N)N)NC(=O)[C@@H]1CCCN1C3=O)C(=O)N1CCC[C@H]1C(=O)NCC(=O)N[C@@H](C)C(=O)N2 (cyclo(ACICRGNGYCKLSSIESDVCPRILRRRRCRRDSDCPG); disulfide 2-20, 4-29, 10-35)
- Activity (Neuron [9]): Active
- Activity [10]: Toxic
- Kd (Disks large homolog 4): 1800 nM
- Survival (Mus musculus [11]): 75%
- Activity (Neuron [12]): Non-toxic
- Drug uptake [13]: Active
- Activity (Neuron [14]): Active
- Drug uptake [15]: Active
- Drug uptake [16]: Active
- Activity [17]: Non-toxic
- Activity [18]: Non-toxic
- Activity (Neuron [19]): 20.9%
- Drug uptake [20]: Active
- Activity (Mus musculus [21]): Not active; Slightly Lower Seizure Severity
- viability at 0.001 µM (Neuron [22]): 39.8%
- Drug uptake [23]: Not_active
- Activity (Mus musculus [24]): Active
- Activity (Neuron [25]): 18.2%
- Activity (Neuron [26]): 8.56%
- Drug uptake [27]: Active
- Drug uptake [28]: Active
- Drug uptake [29]: Active
- viability at 0.01 µM (Neuron [30]): 22.4%
- Activity [31]: Non-toxic
- Drug uptake [32]: Active
- Activity [33]: Non-toxic
- Survival (Mus musculus [34]): 50%
